Results taken from patent US20170000784A1, “Autophagy Inhibitors” (priority 2013, published 2017).
Where two headings read alike, the source gives them in different places.

Tests used:
[1] = test system: UACC-91 melanoma cell line; assay: Cell viability (IC50) screen, CellTiter Glo, UACC-91; format: cell-based; settings: Homo sapiens
Experimental: (§1) U2OS cells were seeded at 500 cells per well in 5A McCoy's with 10% FBS in 96-well clear bottom, black-walled tissue culture plates. All melanoma cell lines (A375, UACC-91, UACC-257, UACC-502, UACC-903, UACC-1308, UACC-1940, UACC-2534, and UACC-3291) were seeded at 5,000 cells per well in RPMI 1640 with 10% FBS in 96-well clear bottom, black-walled tissue culture plates. After 24 hour incubation, cells were treated with VATG compounds in triplicate with a 10-point half log dose response from […] for 24 and 48 hours. Medium was removed and 2× CellTiter Glo (Promega, G7571) reagent mixed 1:1 with Opti-MEM (Invitrogen, 31985062) was added at 100 μL per well and incubated at room temperature for 15 minutes while rocking. 75 μL per well was moved to a white-walled 96-well plate and luminescence quantified using the 96 LUM program on an EnVision plate reader (PerkinElmer) and exported for analysis. All triplicate data points were averaged and luminescent readings for each treatment were normalized to vehicle control for change in viability. Dose response curves were input into SigmaPlot for IC50 calculations (Systat Software Inc).

[2] = test system: UACC-2534 melanoma cell line; assay: Cell viability (IC50) screen, CellTiter Glo, UACC-2534; format: cell-based; settings: Homo sapiens
Experimental: as §1

[3] = test system: A375 melanoma cell line; assay: Cell viability (IC50) screen, CellTiter Glo, A375; format: cell-based; settings: Homo sapiens
Experimental: as §1

[4] = test system: UACC-903 melanoma cell line; assay: Cell viability (IC50) screen, CellTiter Glo, UACC-903; format: cell-based; settings: Homo sapiens
Experimental: as §1

[5] = test system: UACC-3291 melanoma cell line; assay: Cell viability (IC50) screen, CellTiter Glo, UACC-3291; format: cell-based; settings: Homo sapiens
Experimental: as §1

[6] = test system: A375 cells; format: cell-based, human; settings: for Relative Growth Inhibition Compound A / IC10 concentration: A375 soft agar; for Relative Growth Inhibition Compound A: single compound at IC10; for IC10 concentration: treated every other day for three weeks, single agent; for expected (additive) reduction of colony formation: combination with PLX-4032, Bliss Independence prediction; for reduction of colony formation: combinatorial treatment with PLX-4032, each at IC10, FIG. 18A
From the text: After three weeks of treatment, cells were fixed and stained in 1% paraformaldehyde in 1×PBS containing 0.005% crystal violet overnight. Cells were destained with multiple washes of 1×PBS to remove background staining. Plates were scanned and images quantified using Nikon NIS Elements software. To quantify, each image was sharpened and an ROI of equal size drawn around each well. Intensity thresholds were set to include all pixels equal to or greater than the intensity of the mean background fluorescence. Objects within the threshold of each ROI were quantified using an automated object count function and exported for analysis. Object number was quantified to denote total colony formation. […] Additivity was established when the expected viability determined by the Bliss independence model was equal to the actual viability. This model was chosen since the effects of both compounds are mutually non-exclusive and follow first order Michaelis-Menten kinetics.
To determine if the effects of each combination were more than, less than, or equal to additive, predictions for additivity were made using the Bliss Independence (Table 7), as disclosed in Yan H, Zhang B, Li S, Zhao Q. A formal model for analyzing drug combination effects and its application in TNF-alpha-induced NFkappaB pathway. BMC Syst. […] Drug combination studies and their synergy quantification using the Chou-Talalay method.

[7] = test system: U2OS cells stably expressing tfLC3; format: cell-based; settings: for autophagy inhibition at 3 μM: FIG. 10B
Experimental: U2OS cells stably expressing tfLC3 were seeded at 50,000 cells per well in 5A McCoy's with 10% FBS on number 1.5 coverglass in 24-well tissue culture dishes. After 24 hours, cells were treated with known autophagy controls rapamycin [100 nM] (Millipore, 553210-10 mg), bafilomycin A1 [100 nM] (AG Scientific, B-1183), AZD-8055 [100 nM](Selleck Chemicals, S1555), and CQ [50 μM] as well as autophagy inhibitors (CQ, QN, Example 7, and Example 27) at doses of 0.1 μM, 0.25 μM, 0.5 μM, 1 μM, 5 μM, 15 μM, 25 μM, and 50 μM for three hours. Cells were washed with 1×PBS, fixed with 3.7% formaldehyde, and nuclei were stained with Hoechst 33342 (2 μg/mL). Coverglass was inverted onto microscope slides using mounting gel. Cells were imaged using a 60× oil-immersion objective on a Nikon Eclipse Ti fluorescent microscope and 10 images at each dose were taken for quantification. Image processing and quantification were completed with the Nikon NIS Elements software. To quantify, images were deconvolved using a 2D blind deconvolution function with one iteration and settings of normal cell thickness and normal noise level. Regions of interest (ROI) were drawn around the edges of each cell. Intensity thresholds were set to include all pixels equal to or greater than the intensity above the mean background fluorescence using the separation feature and restrictions set for puncta size (FIG. 9). Objects within the threshold for each ROI were quantified using an automated object count function and exported for analysis. Although other parameters were also collected, the mean intensity of the objects was averaged between the 10 images of each dose, or approximately 50 cells (FIGS. 9B and 9C). Representative images were chosen for each dose and the lookup table (LUT) brightness' were set based on the mean intensity of the DMSO control (FIGS. 8A and 10A). The mean intensity of each image was divided by the mean intensity of the DMSO control to control for brightness and the LUTs were adjusted by the percent difference to avoid background and for consistent visualization. All other settings (gain, exposure time, and lamp strength) were kept the same across all conditions. […] Mean intensity was further chosen for quantification as it accurately represents both the increase in puncta number and area when the accumulation of autophagosomes partially fuse (FIG. 9C, 9D). Quantification of the red channel (RFP-LC3 puncta) was performed to determine the total autophagic vesicle population (both autophagosomes and autolysosomes).
Autophagy inhibition can be measured by fluorescent microscopy using cells expressing a tandem fluorescent (RFP-GFP) labeled LC3 sensor (tfLC3). Upon autophagosome nucleation, LC3 is localized to the autophagic membrane and the overlapping GFP and RFP fluorescence appears as yellow puncta. After the autophagosome matures, it fuses with the lysosome, forming an autolysosome. The GFP in this LC3 sensor is pH labile and becomes quenched by the acidic environment of the autolysosome. However, the RFP remains stable; therefore, autolysosomes are indicated by red puncta. Accordingly, when autophagy is inhibited at the final stage (completion), the abundance of yellow puncta is expected to increase proportionally to the level of autophagy inhibition.
Cells were then fixed and imaged by fluorescent microscopy.

[8] = test system: U2OS cells; assay: Cell viability (IC50) screen, CellTiter Glo, U2OS; format: cell-based; settings: for IC50: U2OS cell viability, CellTiter Glo, 48 hours
Experimental: as §1

[9] = UACC-91 cell viability, CellTiter Glo, read-out: IC50
[10] = UACC-2534 cell viability, CellTiter Glo, read-out: IC50
[11] = A-375, A375 cell viability, CellTiter Glo, 48 hours, read-out: IC50
[12] = UACC-903 cell viability, CellTiter Glo, read-out: IC50
[13] = UACC-3291 cell viability, CellTiter Glo, read-out: IC50
[14] = Compound A combined with AZD-8055, each at IC10
[15] = Compound A combined with PLX-4032, each at IC10
[16] = U2OS IC50 relative to quinacrine

Row | Compound | IC50 [1, 9] | IC50 [2, 10] | IC50 [3, 11] | IC50 [4, 12] | IC50 [5, 13] | Relative Growth Inhibition Compound A [6] | IC10 concentration [6] | Actual Growth Inhibition [6, 14] | Expected Bliss Additive Inhibition Value [6, 14] | Actual Growth Inhibition [6, 15] | Expected Bliss Additive Inhibition Value [6, 15] | expected (additive) reduction of colony formation [6] | reduction of colony formation [6] | Potency (EC/ECCQ) [7] | autophagy inhibition at 3 μM [7] | other results
1 | COc1ccc2nc3cc(Cl)ccc3c(NCCCCN3CCN(C)CC3)c2c1 [Example 7, 6-Chloro-2-methoxy-N-(4-(4-methylpiperazin-1-yl)butyl)acridin-9-amine] | 0.5 µM | 2.7 µM | 0.4 µM | 1.5 µM | 0.8 µM | 0.37 | 0.005 µM | 0.57 | 0.44 | 0.64 | 0.49 | 49% | 64% | 150 | inhibit autophagy | fold more potent at autophagy inhibition than QN [7]: 2; fold more cytotoxic than QN [8, 16]: 3.5; IC50 ([8]; read-out: IC50): 0.7 µM
2 | CCN(CC)CCCC(C)Nc1c2ccc(Cl)cc2nc2ccc(OC)cc12 (stereo not shown) [Quinacrine, quinacrine, reference compound] | 2.9 µM | 2.2 µM | 2.3 µM | 2.7 µM | 2 µM |  | 0.064 µM | 0.54 |  | 0.59 |  |  | 59% | ~60 | inhibit autophagy | concentration giving a significant increase in mean intensity of autophagic puncta ([7]; U2OS-tfLC3, ten-point dose response, FIG. 8B): 0.25 µM; Effective Concentration (EC) ([7]; concentration with statistically significant increase in puncta number over vehicle control, three hours): 0.25 µM; IC50 ([8]; Homo sapiens, U2OS, 48 h, read-out: IC50): 2.5 µM
3 | CN1CCN(CCNc2c3c(nc4cc(Cl)ccc24)CCCC3)CC1 [Example 27, 6-Chloro-N-(2-(4-methylpiperazin-1-yl)ethyl)-1,2,3,4-tetrahydroacridin-9-amine] |  |  |  |  |  | 0.37 | 0.002 µM | 0.50 | 0.44 | 0.62 | 0.49 | 49% | 62% |  | inhibit autophagy | IC50 [1]: 22.2 µM; IC50 [2]: 26.6 µM; IC50 ([3]; A-375, 48 h): 24.3 µM; IC50 ([4]; UACC-903): 27.2 µM; IC50 [5]: 25.3 µM; Potency (EC/ECCQ) ([7]; relative potency score versus chloroquine, greater than one = more potent than CQ): 3; times less cytotoxic than QN [8, 16]: 10; IC50 [8]: 27 µM
